The text below walks through data of ChEMBL document CHEMBL5365449, “Permeation behavior of porphyrin derivatives with different functional group positions across cancer cell membranes” (Bioorg Med Chem Lett, 2023).

Series [1] in a line: Drug accumulation of the compound in human MCF7 cells assessed as accumulation at mitochondria by fluorescence microscopy. Type of series: ADME.
Series [2] in a line: Drug accumulation of the compound in human MCF7 cells assessed as accumulation at 4 degC by fluorescence microscopy. Type of series: ADME, cell-based.
Series [3] in a line: Drug accumulation of the compound in human MCF7 cells assessed as accumulation at lysosome by fluorescence microscopy. Type of series: ADME, subcellular.
Series [4] can be described thus: Drug uptake in human MCF7 cells assessed as increase in internalization by measuring fold increase of fluorescence intensity in the presence of LDL by fluorescence spectrum analysis. The series is classed as ADME, cell-based.

As for `O=C(Nc1ccc(-c2c3nc(c(-c4ccccc4)c4ccc([nH]4)c(-c4ccccc4)c4nc(c(-c5ccccc5)c5ccc2[nH]5)C=C4)C=C3)cc1)c1ccccc1`, the Drug uptake result is on record as “Active” in series [1], 3.7 10^-2microM in series [2] and “Active” in series [3]. For the same compound, the “fold change (FC)” value in series [4] was found to be 6.
In the case of `O=C(NC1=Cc2nc1c(-c1ccccc1)c1ccc([nH]1)c(-c1ccccc1)c1nc(c(-c3ccccc3)c3ccc([nH]3)c2-c2ccccc2)C=C1)c1ccccc1`, the Drug uptake entry in series [1] was “Active”; in series [2] it was 7.5 10^-2microM; in series [3], “Active”. The “fold change (FC)” value in series [4] came out at 12.
